In ChEMBL document CHEMBL1201862, “PubChem BioAssay data set” (2004):
Active and inactive are the calls of the source.

Key:
Bcl-2-like protein 10 = Bcl-2-like protein 10 (Homo sapiens, UniProt Q9HD36); test: Biochemical TR3 FP assay of Bcl-B inhibitor potency, EC50 (AID 1243); format: functional
HEK293 = test: Fluorescence-based counterscreen for potentiators or agonists of NPY-Y2: cell-based high-throughput dose response assay to identify inhibitors of cyclic nucleotide gated ion channel (CNGC) activity. In this assay, the parental HEK293 cell line transfected with a cyclic-nucleotide gated ion channel (CNGC)-based cAMP sensor is used to measure inhibition of isoproterenol-induced CNGC activity by test compound.; format: functional; details: Homo sapiens
[1] = molecular target: Neuropeptide Y receptor type 2 (Homo sapiens, UniProt P49146); test: Fluorescence-based cell-based high-throughput dose response assay for agonists of NPY-Y2. [Related pubchem assays: 1703 (Screening assay (CNGC inhibitors).), 1359 (Screening assay (NPY-Y2 potentiators or agonists).), 1304 (Screening assay (NPY-Y1 potentiators or agonists).), 1710 (Screening assay (NPY-Y2 agonists).), 1791 (Summary AID.)]; format: functional
[2] = molecular target: Neuropeptide Y receptor type 1 (Homo sapiens, UniProt P25929); test: Fluorescence-based counterscreen for agonists of NPY-Y2: cell-based high-throughput dose response assay for agonists of NPY-Y1.; format: functional
[3] = molecular target: T1, Heat shock factor protein 1 (Mus musculus, UniProt P38532); test: HSF1 potentiators in luciferase reporter cells, confirmation, cell-based, NIH3T3, luminescence, dose retest (AID 435004); format: functional;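 further: stress induced by proteasome inhibitor MG132 added 30 min after compound; luciferase reporter driven by HSF1 response element in NIH3T3 cells; actives raise luminescence as potentiators of the MG132 stress response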
T1 sequence (P38532 whole entry): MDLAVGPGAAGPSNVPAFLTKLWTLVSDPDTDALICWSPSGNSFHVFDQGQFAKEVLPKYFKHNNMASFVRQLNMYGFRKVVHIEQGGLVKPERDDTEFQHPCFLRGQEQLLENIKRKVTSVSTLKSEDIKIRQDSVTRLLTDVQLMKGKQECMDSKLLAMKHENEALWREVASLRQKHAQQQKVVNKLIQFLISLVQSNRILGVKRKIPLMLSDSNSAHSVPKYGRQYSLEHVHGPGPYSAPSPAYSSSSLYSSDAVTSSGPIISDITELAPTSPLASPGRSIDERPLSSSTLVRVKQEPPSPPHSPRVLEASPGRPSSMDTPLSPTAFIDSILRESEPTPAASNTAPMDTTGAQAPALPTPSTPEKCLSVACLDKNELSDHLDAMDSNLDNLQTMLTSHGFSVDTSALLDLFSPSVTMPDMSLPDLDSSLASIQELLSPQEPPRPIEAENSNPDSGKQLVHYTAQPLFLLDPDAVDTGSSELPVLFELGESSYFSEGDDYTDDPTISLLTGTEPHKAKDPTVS

[4] = molecular target: Lysosomal acid glucosylceramidase (Homo sapiens, UniProt P04062); test: Dose response cell-based high throughput screening assay to identify enhancers of beta-glucosidase activity. [Related pubchem assays: 784 ]; format: functional
cells = format: functional
[5] = Counterscreen for IDE inhibitors: Luminescence-based cell-based high throughput dose response assay to identify compounds that are cytotoxic to HEK cells. [Related pubchem assays: 434962 (Primary screen (IDE inhibitors in singlicate)), 449730 (Counterscreen (Cytotoxicity in triplicate)), 435028 (Confirmation (IDE inhibitors in triplicate)) …; format: functional; details: HEK293
Insulin-degrading enzyme = molecular target: T2, Insulin-degrading enzyme (Homo sapiens, UniProt P14735); test: Dose Response: Fluorescence polarization-based cell-based high throughput dose response assay for inhibitors of insulin-degrading enzyme (IDE). [Related pubchem assays: 434962 (Primary screen (IDE inhibitors in singlicate)), 449730 (Counterscreen (Cytotoxicity in triplicate)), 435028 (Confirmation (IDE inhibitors in triplicate)), 434984 (Summary …; format: functional
T2 sequence (P14735 whole entry): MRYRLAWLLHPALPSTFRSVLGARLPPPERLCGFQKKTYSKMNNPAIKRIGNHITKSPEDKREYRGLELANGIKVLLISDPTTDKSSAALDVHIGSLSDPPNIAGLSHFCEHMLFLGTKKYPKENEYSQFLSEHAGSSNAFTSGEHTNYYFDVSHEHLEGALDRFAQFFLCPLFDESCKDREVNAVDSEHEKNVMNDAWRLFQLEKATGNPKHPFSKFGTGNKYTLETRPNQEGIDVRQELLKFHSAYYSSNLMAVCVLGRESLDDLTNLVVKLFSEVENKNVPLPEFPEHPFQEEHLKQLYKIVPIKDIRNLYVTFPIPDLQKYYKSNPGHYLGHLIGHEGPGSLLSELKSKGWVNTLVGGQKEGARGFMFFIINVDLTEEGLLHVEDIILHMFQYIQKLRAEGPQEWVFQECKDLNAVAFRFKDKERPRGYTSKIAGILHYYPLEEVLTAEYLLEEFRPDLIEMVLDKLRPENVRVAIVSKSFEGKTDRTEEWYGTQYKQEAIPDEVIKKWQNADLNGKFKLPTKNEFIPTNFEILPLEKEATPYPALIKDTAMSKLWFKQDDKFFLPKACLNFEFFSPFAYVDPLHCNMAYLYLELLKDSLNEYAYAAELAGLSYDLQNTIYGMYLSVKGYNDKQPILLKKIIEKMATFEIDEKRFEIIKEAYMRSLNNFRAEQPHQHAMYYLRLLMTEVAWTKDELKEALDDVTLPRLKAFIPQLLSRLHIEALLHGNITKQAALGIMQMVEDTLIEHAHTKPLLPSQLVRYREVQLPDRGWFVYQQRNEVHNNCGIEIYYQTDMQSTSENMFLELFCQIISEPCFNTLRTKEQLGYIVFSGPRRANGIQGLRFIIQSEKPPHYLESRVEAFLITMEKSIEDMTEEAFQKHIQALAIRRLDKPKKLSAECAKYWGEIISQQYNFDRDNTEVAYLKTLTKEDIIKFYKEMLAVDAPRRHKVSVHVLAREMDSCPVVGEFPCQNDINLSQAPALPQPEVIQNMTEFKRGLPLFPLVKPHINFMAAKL

[6] = NIH-3T3 fibroblast cytotoxicity, dose response, cytotoxicity control, cell-based, fluorescence, Alamar Blue, secondary assay (AID 2327); format: functional;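 further: NIH-3T3 mouse fibroblasts cultured with fluconazole at 8 µg/mL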
[7] = molecular target: Serine/threonine-protein phosphatase PP1-alpha catalytic subunit (Homo sapiens, UniProt P62136); test: PP1 phosphatase inhibitors, dose response, biochemical, fluorescence (AID 2403);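 further: phosphatase turnover of OMFP into fluorescent 3-O-methylfluorescein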
[8] = C. albicans growth with fluconazole, confirmation, fluorescence, retest (AID 2467); format: functional, cell-based
[9] = molecular target: Serine/threonine-protein phosphatase (Homo sapiens, UniProt Q9BPW0); test: Counterscreen for inhibitors of PP1: fluorescence-based biochemical high throughput dose response assay to identify inhibitors of Protein Phosphatase 5 (PP5). [Related pubchem assays: 2034 (Summary (PP5 inhibitors)), 1987 (PP5 inhibitors in singlate), 2235 (PP1 inhibitors in singlate)]
Cytochrome P450 2D6 = Cytochrome P450 2D6 (Homo sapiens, UniProt P10635); test: qHTS Assay for Inhibitors and Substrates of Cytochrome P450 2D6. [Related pubchem assays: 410 ]; format: ADME; details: read-out: Potency
Cytochrome P450 2D6, sequence (P10635 whole entry): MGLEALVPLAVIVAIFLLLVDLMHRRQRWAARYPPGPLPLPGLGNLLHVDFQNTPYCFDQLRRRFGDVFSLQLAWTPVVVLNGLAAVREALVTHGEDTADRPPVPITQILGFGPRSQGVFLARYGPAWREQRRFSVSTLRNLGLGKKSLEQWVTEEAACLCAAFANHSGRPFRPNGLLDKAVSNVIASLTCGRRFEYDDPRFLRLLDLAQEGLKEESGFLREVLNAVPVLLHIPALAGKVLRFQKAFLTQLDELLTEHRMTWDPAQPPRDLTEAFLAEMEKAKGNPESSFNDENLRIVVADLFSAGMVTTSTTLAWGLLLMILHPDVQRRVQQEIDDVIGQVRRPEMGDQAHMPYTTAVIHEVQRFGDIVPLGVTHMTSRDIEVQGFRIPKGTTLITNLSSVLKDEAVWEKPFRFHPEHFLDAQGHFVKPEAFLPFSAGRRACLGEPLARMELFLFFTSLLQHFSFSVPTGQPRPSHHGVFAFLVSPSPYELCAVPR

Neuropeptide Y receptor type 1, sequence (P25929 whole entry): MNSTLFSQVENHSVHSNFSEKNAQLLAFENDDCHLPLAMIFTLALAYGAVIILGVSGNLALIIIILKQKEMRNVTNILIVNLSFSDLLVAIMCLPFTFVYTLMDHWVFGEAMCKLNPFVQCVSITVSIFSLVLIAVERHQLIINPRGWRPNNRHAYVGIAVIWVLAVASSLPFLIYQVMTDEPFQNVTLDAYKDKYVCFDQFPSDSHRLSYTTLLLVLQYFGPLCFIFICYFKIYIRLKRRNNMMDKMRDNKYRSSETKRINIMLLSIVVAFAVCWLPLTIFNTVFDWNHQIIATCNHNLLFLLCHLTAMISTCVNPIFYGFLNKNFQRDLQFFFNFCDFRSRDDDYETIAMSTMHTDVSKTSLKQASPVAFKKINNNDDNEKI
Neuropeptide Y receptor type 2, sequence (P49146 whole entry): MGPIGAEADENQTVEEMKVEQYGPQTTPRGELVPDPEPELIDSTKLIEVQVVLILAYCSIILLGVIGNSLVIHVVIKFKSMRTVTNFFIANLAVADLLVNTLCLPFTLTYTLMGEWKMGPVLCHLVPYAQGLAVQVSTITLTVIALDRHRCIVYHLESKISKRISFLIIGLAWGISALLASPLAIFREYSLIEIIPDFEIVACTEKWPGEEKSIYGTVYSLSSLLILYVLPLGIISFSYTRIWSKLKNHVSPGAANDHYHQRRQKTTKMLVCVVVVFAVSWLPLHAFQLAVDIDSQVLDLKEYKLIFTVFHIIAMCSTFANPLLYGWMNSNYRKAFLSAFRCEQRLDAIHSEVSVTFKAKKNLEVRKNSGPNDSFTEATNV
Serine/threonine-protein phosphatase, sequence (Q9BPW0 whole entry): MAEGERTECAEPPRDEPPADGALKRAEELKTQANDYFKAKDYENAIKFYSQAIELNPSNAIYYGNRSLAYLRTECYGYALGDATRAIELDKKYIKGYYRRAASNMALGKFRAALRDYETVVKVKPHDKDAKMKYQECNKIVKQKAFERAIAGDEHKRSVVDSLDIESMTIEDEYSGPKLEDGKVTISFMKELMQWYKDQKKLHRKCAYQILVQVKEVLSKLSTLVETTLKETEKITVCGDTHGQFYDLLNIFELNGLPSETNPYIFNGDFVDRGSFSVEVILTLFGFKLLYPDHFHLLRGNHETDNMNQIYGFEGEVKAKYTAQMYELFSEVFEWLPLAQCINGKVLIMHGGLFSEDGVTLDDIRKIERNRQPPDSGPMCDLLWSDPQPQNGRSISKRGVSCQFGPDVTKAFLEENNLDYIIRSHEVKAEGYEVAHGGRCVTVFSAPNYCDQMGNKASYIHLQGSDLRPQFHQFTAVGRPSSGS
Serine/threonine-protein phosphatase PP1-alpha catalytic subunit, sequence (P62136 whole entry): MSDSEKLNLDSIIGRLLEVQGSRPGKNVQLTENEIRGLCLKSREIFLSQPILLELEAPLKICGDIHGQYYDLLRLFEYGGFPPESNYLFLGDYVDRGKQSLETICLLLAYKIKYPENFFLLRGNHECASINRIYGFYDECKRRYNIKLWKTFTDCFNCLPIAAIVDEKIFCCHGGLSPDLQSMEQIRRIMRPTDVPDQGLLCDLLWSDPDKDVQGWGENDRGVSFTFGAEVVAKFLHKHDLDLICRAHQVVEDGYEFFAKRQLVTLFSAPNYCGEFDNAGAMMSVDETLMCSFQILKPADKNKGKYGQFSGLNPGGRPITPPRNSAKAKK
Lysosomal acid glucosylceramidase, sequence (P04062 whole entry): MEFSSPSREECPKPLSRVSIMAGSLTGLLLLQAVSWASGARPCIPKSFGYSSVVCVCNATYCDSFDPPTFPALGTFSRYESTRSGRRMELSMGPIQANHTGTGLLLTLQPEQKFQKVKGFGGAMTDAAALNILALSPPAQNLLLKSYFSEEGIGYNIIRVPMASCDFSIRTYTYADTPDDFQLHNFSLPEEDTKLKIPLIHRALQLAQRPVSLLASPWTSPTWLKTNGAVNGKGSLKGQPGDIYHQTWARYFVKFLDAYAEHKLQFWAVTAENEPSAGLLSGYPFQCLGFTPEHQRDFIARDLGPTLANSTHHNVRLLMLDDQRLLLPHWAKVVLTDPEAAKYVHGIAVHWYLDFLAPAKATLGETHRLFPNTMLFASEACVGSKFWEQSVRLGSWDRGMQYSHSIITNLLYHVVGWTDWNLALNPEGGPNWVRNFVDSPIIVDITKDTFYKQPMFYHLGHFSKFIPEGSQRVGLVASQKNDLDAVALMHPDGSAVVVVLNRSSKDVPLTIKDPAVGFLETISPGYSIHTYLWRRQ
Bcl-2-like protein 10, sequence (Q9HD36 whole entry): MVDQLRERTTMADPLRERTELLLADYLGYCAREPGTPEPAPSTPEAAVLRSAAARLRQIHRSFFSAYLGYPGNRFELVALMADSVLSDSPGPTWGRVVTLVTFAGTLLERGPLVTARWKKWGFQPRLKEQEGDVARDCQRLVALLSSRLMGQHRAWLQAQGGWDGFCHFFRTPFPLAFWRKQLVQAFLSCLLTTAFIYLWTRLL

## CN(C)c1ccc(NC(=O)/C=C\C(=O)O)cc1
Bcl-2-like protein 10
  EC50: 20.4 µM (active)

## COCCCNC(=O)c1cnc2ccc(S(=O)(=O)N3CCc4ccccc43)cc2c1O
HEK293
  EC50: > 35.4 µM (not active)
[1]
  EC50: > 35.4 µM (not active)
[2]
  EC50: > 35.4 µM (not active)
[3]
  EC50: > 260 µM (inactive)

## CCCCSc1nnc(-c2ccc(C)cc2)o1
[4]
  EC50: > 50 µM (not active)
cells
  IC50: 39 µM (active)

## CCCCCN(C(=O)CCC(=O)OCC(=O)c1ccc(CCC)cc1)c1c(N)n(CCCC)c(=O)[nH]c1=O
[5]
  IC50: 39.1 µM (not active)
Insulin-degrading enzyme
  IC50: 10.6 µM (not active)

## COc1cnc(-c2ccccn2)nc1Sc1cccc(Cl)c1
[6]
  EC50: > 160 µM (inactive)
[7]
  IC50: 4.75 µM (active)
[8]
  EC50: > 38 µM (not active)
[9]
  IC50: > 67 µM (not active)

## C=CCc1cccc(C2C(C)CCC3C(=O)N4C(Cc5c([nH]c6ccccc56)C4c4cc(OC)c(OC)c(OC)c4)C(=O)N32)c1 (centres undefined)
Cytochrome P450 2D6
  AC50: 3.98 µM (inconclusive)
